# Measurements reported in patent US5407918A, “16-membered macrolide derivatives and process for producing the same” (Meiji Seika Kaisha, Ltd., priority 1992, dated 1995).
# Like-named read-outs stand apart in the source and are kept apart here.
# Experiments:
# Assay type in all cases: cell-based
# [1] = test system: test strains; assay: antimicrobial activity in vitro, comparison in words; conditions: data are not shown
# Procedure: (§1) Antimicrobial activities of the compounds of the present invention were determined by measuring minimum inhibitory concentration (MIC). Minimum inhibitory concentration was determined by the agar plate dilution method in the following manner.
# (§2) Test strains were subjected to seed culture using Sensitivity test broth (STB, Nissui Pharmaceutical) except that the strains belonging to the genus Streptococcus, Branhamella and Haemophilus were cultured on blood agar plate. A 5 μl portion of cell suspension of the test strains having about 10^6 CFU/ml was inoculated into Sensitivity disk agar (SDA, Nissui Pharmaceutical) supplemented with 5% horse blood and incubated at 37° C. for 20 hours. Then, MIC was measured. For comparison, MDM and leucomycin A7 (LM-A7) was also tested.
# [2] = test system: Gram-positive bacteria; assay: antimicrobial activity in vitro (summary in words); conditions: from Tables 2 and 3
# Procedure: as §1, §2
# [3] = test system: S. aureus MS15009/pMS99; assay: MIC, agar plate dilution method; conditions: Staphylococcus aureus, MS15009/PMS99, 20 h, read-out: Antimicrobial activity (MIC)
# Procedure: as §1, §2
# [4] = test system: S. aureus M126; assay: MIC, agar plate dilution method; conditions: Staphylococcus aureus, read-out: Antimicrobial activity (MIC)
# Procedure: as §1, §2
# [5] = test system: S. pneumoniae IP692; assay: MIC, agar plate dilution method; conditions: Streptococcus pneumoniae; S. pneumoniae IP692; 37° C., 20 hours; read-out: Antimicrobial activity (MIC)
# Procedure: as §1, §2
# [6] = test system: H. influenzae 9334; assay: MIC, agar plate dilution method; conditions: Haemophilus influenzae; H. influenzae 9334; 37° C., 20 hours; read-out: Antimicrobial activity (MIC)
# Procedure: as §1, §2
# [7] = test system: S. aureus MS15027; assay: MIC, agar plate dilution method; conditions: Staphylococcus aureus, 37° C., 20 hours, read-out: Antimicrobial activity (MIC)
# Procedure: as §1, §2
# [8] = test system: S. Pneumoniae Type 1; assay: MIC, agar plate dilution method; conditions: Streptococcus pneumoniae; S. Pneumoniae Type 1; 37° C., 20 hours; read-out: Antimicrobial activity (MIC)
# Procedure: as §1, §2
# [9] = test system: S. aureus MS15026; assay: MIC, agar plate dilution method; conditions: Staphylococcus aureus, 37° C., 20 hours, read-out: Antimicrobial activity (MIC)
# Procedure: as §1, §2
# [10] = test system: H. influenzae Type b; assay: MIC, agar plate dilution method; conditions: Haemophilus influenzae, read-out: Antimicrobial activity (MIC)
# Procedure: as §1, §2
# [11] = test system: M. luteus ATCC9341; assay: MIC, agar plate dilution method; conditions: Micrococcus luteus; M. luteus ATCC9341; 37° C., 20 hours; read-out: Antimicrobial activity (MIC)
# Procedure: as §1, §2
# [12] = test system: E. faecalis W-73; assay: MIC, agar plate dilution method; conditions: Enterococcus faecalis, W73; E. faecalis W-73; 37° C., 20 hours; read-out: Antimicrobial activity (MIC)
# Procedure: as §1, §2
# [13] = test system: S. aureus MS15009/pMS98; assay: MIC, agar plate dilution method; conditions: Staphylococcus aureus, MS15009/PMS98, 20 h, read-out: Antimicrobial activity (MIC)
# Procedure: as §1, §2
# [14] = test system: B. catarrhalis W-0500; assay: MIC, agar plate dilution method; conditions: Moraxella catarrhalis, W0500, 37° C., 20 hours, read-out: Antimicrobial activity (MIC)
# Procedure: as §1, §2
# [15] = test system: K. pneumoniae PC1602; assay: MIC, agar plate dilution method; conditions: Klebsiella pneumoniae, 37° C., 20 hours, read-out: Antimicrobial activity (MIC)
# Procedure: as §1, §2
# [16] = test system: S. aureus M133; assay: MIC, agar plate dilution method; conditions: Staphylococcus aureus, 37° C., 20 hours, read-out: Antimicrobial activity (MIC)
# Procedure: as §1, §2
# [17] = test system: S. Pyogenes Cook; assay: MIC, agar plate dilution method; conditions: Streptococcus pyogenes, 37° C., 20 hours, read-out: Antimicrobial activity (MIC)
# Procedure: as §1, §2
# [18] = test system: E. coli NIHJ JC-2; assay: MIC, agar plate dilution method; conditions: Escherichia coli, NIHJJC2; E. coli NIHJ JC-2; 37° C., 20 hours; read-out: Antimicrobial activity (MIC)
# Procedure: as §1, §2
# [19] = test system: S. epidermidis ATCC14990; assay: MIC, agar plate dilution method; conditions: Staphylococcus epidermidis, 37° C., 20 hours, read-out: Antimicrobial activity (MIC)
# Procedure: as §1, §2
# [20] = test system: B. catarrhalis W-0506; assay: MIC, agar plate dilution method; conditions: Moraxella catarrhalis, W0506, 37° C., 20 hours, read-out: Antimicrobial activity (MIC)
# Procedure: as §1, §2
# [21] = test system: S. aureus 209P JC-1; assay: MIC, agar plate dilution method; conditions: Staphylococcus aureus, read-out: Antimicrobial activity (MIC)
# Procedure: as §1, §2
# [22] = S. aureus M126, 37° C., 20 hours
# [23] = H. influenzae Type b, 37° C., 20 hours
# [24] = S. aureus 209P JC-1, 37° C., 20 hours
Compound,antimicrobial activity on Gram-positive bacteria [2],MIC [3] [µg/mL],"MIC [4, 22] [µg/mL]",MIC [5] [µg/mL],MIC [6] [µg/mL],MIC [7] [µg/mL],MIC [8] [µg/mL],MIC [9] [µg/mL],"MIC [10, 23] [µg/mL]",MIC [11] [µg/mL],MIC [12] [µg/mL],MIC [13] [µg/mL],MIC [14] [µg/mL],MIC [15] [µg/mL],MIC [16] [µg/mL],MIC [17] [µg/mL],MIC [18] [µg/mL],MIC [19] [µg/mL],MIC [20] [µg/mL],"MIC [21, 24] [µg/mL]",further results
CO[C@@H]1[C@@H](O[C@@H]2O[C@H](C)[C@@H](O[C@H]3C[C@@](C)(OC)[C@@H](OCCC(C)C)[C@H](C)O3)[C@H](N(C)C)[C@H]2O)[C@@H](CC=O)C[C@@H](C)[C@@H](OC(C)=O)/C=C/C=C/C[C@@H](C)OC(=O)C[C@H]1O [(13)],–,–,–,–,–,–,–,–,–,–,–,–,–,–,–,–,–,–,–,–,antimicrobial activity compared with compound (12) [1]: comparable in the antimicrobial activity to the compound (12)
CCO[C@]1(C)C[C@H](O[C@H]2[C@H](N(C)C)[C@@H](O)[C@H](O[C@H]3[C@@H](CC=O)C[C@@H](C)[C@@H](O)/C=C/C=C/C[C@@H](C)OC(=O)C[C@@H](O)[C@@H]3OC)O[C@@H]2C)O[C@@H](C)[C@@H]1OCCC(C)C [(14)],strong antimicrobial activity,> 100,> 100,0.2,6.25,0.39,0.2,> 100,12.5,0.05,0.78,0.39,0.39,> 100,0.78,0.1,> 100,0.78,0.78,0.2,–
CCCO[C@]1(C)C[C@H](O[C@H]2[C@H](N(C)C)[C@@H](O)[C@H](O[C@H]3[C@@H](CC=O)C[C@@H](C)[C@@H](O)/C=C/C=C/C[C@@H](C)OC(=O)C[C@@H](O)[C@@H]3OC)O[C@@H]2C)O[C@@H](C)[C@@H]1OCCC(C)C [(15)],strong antimicrobial activity,> 100,> 100,0.2,6.25,0.39,0.2,> 100,–,0.1,0.78,0.39,0.78,> 100,0.78,0.1,> 100,0.78,0.78,0.2,MIC ([10]; 20 h): 50 µg/mL
"CCC(=O)O[C@H]1[C@H](C)O[C@@H](O[C@H]2[C@H](N(C)C)[C@@H](O)[C@H](O[C@H]3[C@@H](CC=O)C[C@@H](C)[C@@H](O)/C=C/C=C/C[C@@H](C)OC(=O)C[C@@H](O)[C@@H]3OC)O[C@@H]2C)C[C@@]1(C)O [LM-A7, leucomycin A7, reference compound]",–,> 100,–,0.2,0.78,0.39,0.2,> 100,6.25,0.05,0.78,0.39,0.78,> 100,0.39,0.1,> 100,0.39,1.56,–,"MIC ([4]; M126, 20 h): > 100 µg/mL; MIC ([21]; 209P, 20 h): 0.2 µg/mL"
